# Measured values: US9840470B2, “Targeting GLI proteins in human cancer by small molecules” (The Regents of the University of California, priority 2013, dated 2017)
# Key:
# [1] = Preliminary in vivo toxicity: leukocyte population and body weight after treatment; set-up: species or system mouse
# Method: (§1) The administered compounds were tested in vivo in the mouse xenograft model bearing human cancer cells. Briefly, female athymic nude mice strain NCRNU-M (5-10 weeks old, 20-25 grams in weight; Taconic, Germantown, N.Y.) was maintained in pathogen-free conditions. Three human cancer cell lines: NSCLC A549, melanoma MelJuso, and mesothelioma MS-1 were used. Five or ten mice were used in each group and injected s.c. with 3×10^6 cancer cells in the dorsal area in a volume of 100 μl. After inoculation, human cancer cells were allowed to grow in mice for 10-13 days to become visible tumor nodules. Animals were then injected with a compound of the embodiments at a dose of 50 mg/kg body weight (1 mg/mouse per day). Vehicle alone was used as control. The compounds and controls were adjusted in 40 ul volume for i.p. injection in the abdomens of the mice. Injections were performed daily around the same time for 14 days. Tumors were allowed to grow for 1-2 additional weeks after completion of the compound treatments. Tumor size was measured every three to four days, and tumor volumes were calculated using width (x) and length (y) (x^2y/2, where x<y). Throughout this period, general toxicity of the treatments was also monitored by measuring body weight of the mice. Data was presented as mean values (±S.D.).
# (§2) After the in vivo studies were completed, different organs were resected from mice. These organs included liver, lung, heart, kidney, intestines, ovary, brain, spleen, skin, and muscle. The specimens were fixed in 4% buffered formaldehyde, embedded in paraffin, sectioned, and histologically analyzed by hematoxylin and eosin (HE) staining. The HE stained slides were examined by a mouse pathologist for toxicity evidence from all the organs as compared with vehicle controls. In addition, leukocytes (WBC: white blood cell, NE: neutrophil, LY: lymphocyte, MO: monocyte, EO: eosinophil, BA: basophil) from each animal from all treatment groups were collected and leukocyte population was counted through a blood cell counter.
# As preliminary in vivo toxicity study of Compounds 1, 2, 4, and 6, it was examined if there were changes of leukocyte population and loss of body weight in the mice after the treatment. At the completion of the in vivo studies as described herein, leukocytes (WBC: white blood cell, NE: neutrophil, LY: lymphocyte, MO: monocyte, EO: eosinophil, BA: basophil) from each animal from all treatment groups were collected and leukocyte population was counted through a blood cell counter. Body weights of control groups (n=10) and the treated group (n=10) were measured using a scale during the course of drug administration. […] In an additional toxicity study, effect of different doses of compounds 4 and 6 on the body weight of mice was examined. The compounds were i.p. injected in the abdomens at 3 different doses: 25, 50, and 100 mg/kg body weight to mice (3 mice per dosing group) for 6 consecutive days.
# melanoma MelJuso = test: In vivo efficacy, mouse xenograft model (melanoma MelJuso)
# Method: as §1
# In vivo efficacy study of Compounds 1, 2, 4, and 6 were performed using a Mouse Xenograft Model (Melanoma MelJuso). Mice were injected s.c. with 3×10^6 cells in the dorsal area in a volume of 100 μl. 13 days after inoculation, the mice started receiving treatments with the administered compound at a dose of 50 mg/kg body weight daily for 14 days (n=10). Vehicle alone was used as control (n=10). The administered compounds and vehicle were adjusted in a volume of 40 μl for i.p. injection in the abdomens of the mice. Tumor size and tumor volumes were calculated as described above.
# [2] = Histological (H&E) examination of mouse organs for toxicity; type: in vivo; settings: i.p. two doses daily for 6 days; liver, spleen, kidney, heart
# Description: as §2
# To analyze toxicity of the Compounds 1, 2, 4, and 6 in vivo, each group (three mice) was i.p. injected with two doses of each Compound daily for 6 days, and then major mouse organs, such as liver, spleen, kidney, and heart were resected from the mice.
# [3] = system: Hedgehog signaling pathway; test: Quantitative RT-PCR of Hh pathway genes in xenograft tumors; type: in vivo, mouse; settings: Melanoma tumor (MelJuso), pooled tumor from two mice
# Method: Total RNA was isolated using Qiagen RNeasy Mini Kit (Valencia, Calif.). Hybridization probes and primers (Table 1) were purchased from Applied Biosystems (ABI, Foster City, Calif.). cDNA synthesis and Taqman® PCR were performed according to the manufactures' protocols. The gene expression was assayed in triplicate in ABI 7300 Real-time PCR System. Samples were normalized to their housekeeping gene GAPDH and then calculated by using 2^−dct method.
# To examine whether Compounds 1, 2, 4, and 6 suppressed tumor growth through inhibition of the Hedgehog signaling pathway in vivo, expression of the key components and direct target genes of the Hh pathway (e.g. Gli1, Gli2, Gli3, HHIP and Cyclin D1) were analyzed by quantitative real-time RT-PCR using total RNA isolated from the xenograft tumors. GAPDH served as a control. This RT-PCR analysis was performed using a “pooled” tumor from two randomly selected mice of each group with reasonable size tumors. […] The results are shown in FIG. 4, where C is control and V is vehicle.
# human NSCLC cell lines = test: Combination treatment with chemotherapies, MTS proliferation assay, lung cancer cells; type: cell-based; settings: 72 hours, Combination Index
# Description: Another assay for determining the number of viable cells in proliferation or cytotoxicity assays is the MTS assay, a colorimetric method. MTS assay reagents are commercially available (Promega Corp., Madison, Wis.). The reagent contains a tetrazolium compound [3-(4,5-dimethylthiazol-2-yl)-5-(3-carboxymethoxyphenyl)-2-(4-sulfophenyl)-2H-tetrazolium, inner salt; MTS] and an electron coupling reagent (phenazine ethosulfate; PES). PES has enhanced chemical stability, which allows it to be combined with MTS to form a stable solution. The MTS tetrazolium compound (Owen's reagent) is bioreduced by cells into a colored formazan product that is soluble in tissue culture medium. This conversion may be accomplished by NADPH or NADH produced by dehydrogenase enzymes in metabolically active cells. The quantity of formazan product as measured by the absorbance at 490 nm is directly proportional to the number of living cells in culture. Because the MTS formazan product is soluble in tissue culture medium, this assay requires fewer steps than procedures that use tetrazolium compounds such as MTT. The formazan product of MTT reduction is a crystalline precipitate that requires an additional step in the procedure to dissolve the crystals before recording absorbance readings at 570 nm.
# Combination treatments of the Compounds with several chemotherapies: erlotinib (Tarceva®), PI3K inhibitor LY294002, TGFβ inhibitor SB431542, and pemetrexed (Alimta®) were performed in human NSCLC and MM cell lines (FIGS. 12-17). In all experiments, NSCLC and MM cell lines were treated with different doses of each compound or combination for 72 hours, and MTS assays were performed to determine the cell proliferations. Combination Index (CI), calculated by CalcuSyn software (Biosoft, Cambridge, UK), was applied to describe the effect of the combination effects of two compounds, where CI<1 indicates Synergism, CI=1 indicates Additive effects, and CI>1 indicates Antagonism. Student's t-tests were applied for statistical analysis.
smiles,measurement,setting,value
"CCCC1C(C(=O)NCCCC(C)(C)CO)C(c2ccc(F)cc2)=NN1c1ccccc1 (stereo not shown) [Compound 4, 3-(4-fluoro-phenyl)-1-phenyl-5-propyl-4,5-dihydro-1H-pyrazole-4-carboxylic acid (5-hydroxy-4,4-dimethyl-pentyl)-amide]",changes of leukocyte population,[1]; at completion of the in vivo studies,No noticeable changes of leukocyte population
same,loss of body weight,[1]; during the course of drug administration,No noticeable changes of leukocyte population or loss of the body weight
same,tumor growth,"melanoma MelJuso; 50 mg/kg body weight i.p. daily for 14 days, from 13 days after inoculation",dramatically suppressed
same,tumor weight (FIG. 1),"melanoma MelJuso; melanoma MelJuso xenograft, after treatment",significantly decreased
same,toxicity in organs (H&E histology),[2],No noticeable toxicity
same,"Hh signaling (expression of Gli1, Gli2, Gli3, HHIP, Cyclin D1)",[3],inhibited
same,combination effect with erlotinib (Tarceva),human NSCLC cell lines,synergy
